# Source: US20260286287A1, “NOVEL BACTERIAL STRAIN USEFUL FOR TREATING CUTANEOUS INFLAMMATION” (PIERRE FABRE DERMO-COSMETIQUE, priority 2023, published 2026)
# How the values were obtained:
# [1] = system: normal human epidermal keratinocytes (NHEK) stimulated by an inflammatory cytokine mix (IL-4+IL-13+IL-22+TNF-α); experiment: Gene expression (RT-qPCR) in cytokine-stimulated normal human epidermal keratinocytes, in vitro model of chronic atopic dermatitis; assay type: cell-based
# Description: The effects of the bacterial extracts prepared in example 3 (i.e., L0, BL0, S0 and ES0) on gene expression were assessed with normal human epidermal keratinocytes (NHEK) which have been stimulated by an inflammatory cytokine mix (IL-4+IL-13+IL-22+TNF-α), a particularly useful model representative of the chronic phase of atopic dermatitis.
# Keratinocytes were seeded in 24-well plates and grown for 24 hours in growth medium with culture conditions at 37° C. and 5% C02. The growth medium comprised Keratinocyte SFM (Serum Free Medium) supplemented with Epidermal Growth Factor (EGF) 0.25 ng/ml, Pituitary extract (PE) 25 μg/ml and Gentamycin 25 μg/ml. The medium was then removed and replaced by assay medium containing either no added extract or compound (negative control), one of the bacterial extracts of example 3 (L0, BL0, S0 or ES0), or the reference compound (JAK Inhibitor | at 10 μM). Cells were then pre-incubated for 24 hours. The assay medium comprised Keratinocyte SFM supplemented with Gentamycin 25 μg/ml.
# After pre-incubation, the assay medium was renewed, the mix of cytokines (IL-4+IL-13+TNF-α +IL-22, each at 10 ng/ml) added and the cells then incubated for 24 hours. Cytokine stimulation induces a phenotype in NHEK which is similar to the one observed during the chronic phase of atopic dermatitis (Bernard et al., 2012). In parallel, non-stimulated controls are performed.
# All experiments were performed in triplicate (n=3).
# Cells from the replicates of the same experimental condition were pooled.
# Total RNA was extracted with TriPure Isolation Reagent® (Roche Molecular System Inc.) according to the supplier's instruction. The complementary DNA (cDNA) was synthetised by reverse transcription of total RNA in presence of oligo (dT) and Transcriptor Reverse Transcriptase (Roche Molecular System Inc.).
# RT-qPCR (real time quantitative PCR) was used to analyse the expression of markers in total RNA extracted from the cell monolayers of each experimental condition. The LightCycler® system (Roche Molecular System Inc.) was used according to the supplier's instruction,
# Two reference genes (GAPDH and RPS28) were used in the PCR array for data normalisation because of their constitutive expression. Consequently, the level of expression of the target markers was compared to the mean expression level of these 2 markers for all test conditions.
# Different genes markers are reported: • barrier function, differentiation, lipid and desquamation markers: coding gene of Small Proline Rich Protein 1B (SPRR1B), coding gene of Kallikrein Related Peptidase 7 (KLK7), coding gene of Involucrin (IVL), coding gene of Caspase 14 (CASP14), coding gene of Sciellin (SCEL) and coding gene of sulfotransferase family, cytosolic, 2B, member 1 (SULT2B1); • antimicrobial and innate immunity markers: coding gene of serpin peptidase inhibitor, clade B, member 13 (SERPINB13), coding gene of calcium binding protein A7 (S100A7), coding gene of Toll-like receptor 2 (TLR2); • inflammation markers: coding gene of Chemokine (C-C motif) ligand 5 (CCL5), coding gene of Chemokine (C-C motif) ligand 27 (CCL27) and coding gene of interleukin 13 receptor, alpha 2 (IL13RA2).
# bacterial strain LMB275 = experiment: Sensitivity of the bacterial strain to antibiotics, disc diffusion method; assay type: cell-based, Aquabacterium strain LMB275; details: modified R2A agar, 48 and 72 h at 30° C.
# Description: The sensitivity of the bacterial strain to antibiotics was tested by the disc diffusion method after spreading cell suspensions (8.0 McFarland) on modified R2A agar plates. The antibiotics and their concentration used on filter-paper discs for the susceptibility assay are listed in the species definition. The effect of antibiotics on cell growth was assessed after 48 and 72 h at 30° C.
# [2] = NHEK, cytokine mix 10 ng/ml + JAK inhibitor I 10 μM, Mean HK normalisation
# [3] = NHEK, cytokine mix 10 ng/ml + JAK inhibitor I 10 μM, Mean HK normalisation, 1440 min
# [4] = cytokine-stimulated NHEK, JAK inhibitor I 10 μM
# [5] = cytokine-stimulated NHEK, JAK inhibitor I 10 μM, listed as JAK Inhibitor I
compound,measurement,setting,value
CC(C)(C)c1nc2c3cc[nH]c(=O)c3c3cc(F)ccc3c2[nH]1 [JAK inhibitor I],SPRR1B gene expression,[1]; [2],557 % control
same,SULT2B1 gene expression,[1]; [2],231 % control
same,CASP14 gene expression,[1]; [3],199 % control
same,CCL5 gene expression,[1]; [3],23 % control
same,CCL27 gene expression,[1]; [3],72 % control
same,IL13RA2 gene expression,[1]; [3],12 % control
same,IVL gene expression,[1]; [3],986 % control
same,KLK7 gene expression,[1]; [3],146 % control
same,S100A7 gene expression,[1]; [3],94 % control
same,SCEL gene expression,[1]; [3],141 % control
same,SERPINB13 gene expression,[1]; [3],27 % control
same,TLR2 gene expression,[1]; [3],21 % control
same,expression of antimicrobial and innate immunity markers (in words),[1]; [4],decrease
same,expression of inflammation markers (in words),[1]; [4],decrease
same,expression of keratinocyte differentiation markers (in words),[1]; [4],increase
same,expression of antimicrobial and innate immunity markers (in words),[1]; [5],down-regulating
same,expression of inflammation markers (in words),[1]; [5],down-regulating
CC1(C)S[C@@H]2[C@H](NC(=O)[C@H](N)c3ccc(O)cc3)C(=O)N2[C@H]1C(=O)O [amoxicillin],sensitivity of the bacterial strain to the antibiotic,bacterial strain LMB275; disc 30 μg,resistant
CC1(C)S[C@@H]2[C@H](NC(=O)[C@H](N)c3ccccc3)C(=O)N2[C@H]1C(=O)O [ampicillin],sensitivity of the bacterial strain to the antibiotic,bacterial strain LMB275; disc 10 μg,resistant
CO/N=C(\C(=O)N[C@@H]1C(=O)N2C(C(=O)O)=C(COC(C)=O)CS[C@H]12)c1csc(N)n1 [cefotaxim],sensitivity of the bacterial strain to the antibiotic,bacterial strain LMB275; disc 30 μg,resistant
O=C(N[C@H](CO)[C@H](O)c1ccc([N+](=O)[O-])cc1)C(Cl)Cl [chloramphenicol],sensitivity of the bacterial strain to the antibiotic,bacterial strain LMB275; disc 30 μg,sensitive
O=C(O)c1cn(C2CC2)c2cc(N3CCNCC3)c(F)cc2c1=O [ciprofloxacin],sensitivity of the bacterial strain to the antibiotic,bacterial strain LMB275; disc 5 μg,sensitive
CC[C@H]1OC(=O)[C@H](C)[C@@H](O[C@H]2C[C@@](C)(OC)[C@@H](O)[C@H](C)O2)[C@H](C)[C@@H](O[C@@H]2O[C@H](C)C[C@H](N(C)C)[C@H]2O)[C@](C)(O)C[C@@H](C)C(=O)[C@H](C)[C@@H](O)[C@]1(C)O [erythromycin],sensitivity of the bacterial strain to the antibiotic,bacterial strain LMB275; disc 15 μg,sensitive
C[C@@H](O)[C@H]1C(=O)N2C(C(=O)O)=C(SCCN=CN)C[C@H]12 [imipenem],sensitivity of the bacterial strain to the antibiotic,bacterial strain LMB275; disc 10 μg,sensitive
NC[C@H]1O[C@H](O[C@H]2[C@H](O)[C@@H](O[C@H]3O[C@H](CO)[C@@H](O)[C@H](N)[C@H]3O)[C@H](N)C[C@@H]2N)[C@H](O)[C@@H](O)[C@@H]1O [kanamycin],sensitivity of the bacterial strain to the antibiotic,bacterial strain LMB275; disc 30 μg,sensitive
CC1COc2c(N3CCN(C)CC3)c(F)cc3c(=O)c(C(=O)O)cn1c23 (centres unmarked) [ofloxacin],sensitivity of the bacterial strain to the antibiotic,bacterial strain LMB275; disc 5 μg,sensitive
CC1(C)S[C@@H]2[C@H](NC(=O)Cc3ccccc3)C(=O)N2[C@H]1C(=O)O [penicillin],sensitivity of the bacterial strain to the antibiotic,bacterial strain LMB275; disc 10 UI,resistant
CO[C@H]1/C=C/O[C@@]2(C)Oc3c(C)c(O)c4c(O)c(c(/C=N/N5CCN(C)CC5)c(O)c4c3C2=O)NC(=O)/C(C)=C\C=C\[C@H](C)[C@H](O)[C@@H](C)[C@@H](O)[C@@H](C)[C@H](OC(C)=O)[C@@H]1C [rifampicin],sensitivity of the bacterial strain to the antibiotic,bacterial strain LMB275; disc 30 μg,sensitive
[H]/N=C(/N)N[C@H]1[C@H](O)[C@@H](O)[C@H](O[C@@H]2O[C@@H](C)[C@](O)(C=O)[C@H]2O[C@@H]2O[C@@H](CO)[C@H](O)[C@@H](O)[C@@H]2NC)[C@@H](N/C(N)=N\[H])[C@@H]1O [streptomycin],sensitivity of the bacterial strain to the antibiotic,bacterial strain LMB275; disc 10 μg,sensitive
CN(C)[C@@H]1C(=O)C(C(N)=O)=C(O)[C@@]2(O)C(=O)C3=C(O)c4c(O)cccc4[C@@](C)(O)[C@H]3C[C@@H]12 [tetracyclin],sensitivity of the bacterial strain to the antibiotic,bacterial strain LMB275; disc 30 μg,sensitive
CN[C@H](CC(C)C)C(=O)N[C@H]1C(=O)N[C@@H](CC(N)=O)C(=O)N[C@H]2C(=O)N[C@H]3C(=O)N[C@H](C(=O)N[C@H](C(=O)O)c4cc(O)cc(O)c4-c4cc3ccc4O)[C@H](O)c3ccc(c(Cl)c3)Oc3cc2cc(c3O[C@@H]2O[C@H](CO)[C@@H](O)[C@H](O)[C@H]2O[C@H]2C[C@](C)(N)[C@H](O)[C@H](C)O2)Oc2ccc(cc2Cl)[C@H]1O [vancomycin],sensitivity of the bacterial strain to the antibiotic,bacterial strain LMB275; disc 30 μg,sensitive
polymixin B,sensitivity of the bacterial strain to the antibiotic,bacterial strain LMB275; disc 300 UI,resistant
